Results as given in patent publication US20090306135A1 (priority 2008, published 2009).
Like-named read-outs stand apart in the source and are kept apart here.

Experiments:
[1] = Text: X-Ray tube with Cu target anode Divergence slits 1 0, Receiving slit 0.15 mm, Scatter slit 1 0 Power: 40 KV, 100 mA; Scanning speed: 2 degree/minute step: 0.02 degree; Wave length: 1.5406 A; Spray Dryer: PST01
[2] = Storage stability at 25 ± 2° C. and 60 ± 5% RH; format: physicochemical
[3] = 40 ± 2° C. and 75 ± 5% RH, 1 Month
[4] = 40 ± 2° C. and 75 ± 5% RH, 2 Month
[5] = 40 ± 2° C. and 75 ± 5% RH, 3 Month
[6] = 40 ± 2° C. and 75 ± 5% RH, Initial
[7] = 40 ± 2° C. and 75 ± 5% RH (Using BHA), 1 Month
[8] = 40 ± 2° C. and 75 ± 5% RH (Using BHA), 2 Month
[9] = 40 ± 2° C. and 75 ± 5% RH (Using BHA), Initial

## CC(C)(C(=O)O)c1ccc(C(O)CCCN2CCC(C(O)(c3ccccc3)c3ccccc3)CC2)cc1.Cl (racemic) [Example 1, (±)-4-[1 hydroxy-4-[4-(hydroxydiphenylmethyl)-1-piperidinyl]-butyl]-α,α-dimethyl benzeneacetic acid hydrochloride]
[1]; [3]
  Assay by HPLC: 99.4 % w/w on dried basis
  Description: White Powder
  Possible impurities Comp-A: 0.050
  Related Subs: 0.201 % w/w
  XRD: Complies
[1]; [4]
  Assay by HPLC: 98.7 % w/w on dried basis
  Description: White Powder
  Possible impurities Comp-A: 0.047
  Possible impurities ME-pF (Methyl ester of p-fexofenadine): 0.002
  Possible impurities TRS-1: 0.008
  Related Subs: 0.237 % w/w
  XRD: Complies
[1]; [5]
  Assay by HPLC: 99.3 % w/w on dried basis
  Description: White Powder
  Possible impurities Comp-A: 0.053
  Related Subs: 0.203 % w/w
  XRD: Complies
[1]; [6]
  Assay by HPLC: 99.0 % w/w on dried basis
  Description: White Powder
  Possible impurities Comp-A: 0.049
  Related Subs: 0.188 % w/w
  XRD: Complies
[2]; 3 Month
  Assay by HPLC: 99.4 % w/w on dried basis
  Description: White Powder
  Possible impurities Comp-A: 0.050
  Related Subs: 0.213 % w/w
  XRD: Complies
[2]; 6 Month
  Assay by HPLC: 98.8 % w/w on dried basis
  Description: White Powder
  Possible impurities Comp-A: 0.040
  Related Subs: 0.186 % w/w
  XRD: Complies
[2]; 9 Month
  Assay by HPLC: 100.2 % w/w on dried basis
  Description: White Powder
  Possible impurities Comp-A: 0.039
  Related Subs: 0.171 % w/w
  XRD: Complies
[2]; Initial
  Assay by HPLC: 99.0 % w/w on dried basis
  Description: White Powder
  Possible impurities Comp-A: 0.049
  Related Subs: 0.188 % w/w
  XRD: Complies

## CC(C)(C(=O)O)c1ccc(C(O)CCCN2CCC(C(O)(c3ccccc3)c3ccccc3)CC2)cc1.Cl (racemic) [Example 2, (±)-4-[1 hydroxy-4-[4-(hydroxydiphenylmethyl)-1-piperidinyl]-butyl]-α,α-dimethyl benzeneacetic acid hydrochloride]
[1]; [7]
  Assay by HPLC: 99.6 % w/w on dried basis
  Description: White powder
  Possible impurities Comp-A: 0.069
  Possible impurities ME-mF (Methyl ester of m-fexofenadine): 0.023
  Possible impurities TRS-1: 0.008
  Related Subs: 0.227 % w/w
  XRD: Complies
[1]; [8]
  Assay by HPLC: 99.3 % w/w on dried basis
  Description: White powder
  Possible impurities Comp-A: 0.067
  Possible impurities ME-mF (Methyl ester of m-fexofenadine): 0.019
  Possible impurities TRS-1: 0.009
  Related Subs: 0.218 % w/w
  XRD: Complies
[1]; [9]
  Assay by HPLC: 99.3 % w/w on dried basis
  Description: White powder
  Possible impurities Comp-A: 0.071
  Possible impurities ME-mF (Methyl ester of m-fexofenadine): 0.023
  Related Subs: 0.219 % w/w
  XRD: Complies

## CC(C)(C(=O)O)c1ccc(C(O)CCCN2CCC(C(O)(c3ccccc3)c3ccccc3)CC2)cc1.Cl (racemic) [amorphous fexofenadine hydrochloride, (±)-4-[1 hydroxy-4-[4-(hydroxydiphenylmethyl)-1-piperidinyl]-butyl]-α,α-dimethyl benzeneacetic acid hydrochloride]
[1]; different storage conditions (Tables 1-3)
  time for which the product is stable: ≥ 3 months
